Reference: patent publication US7763596B2, “Selective glucocorticoid receptor agonists” (The University of Manchester, priority 2000, dated 2010)

How the values were obtained:
endogenous GR = molecular target: T1, endogenous GR (Homo sapiens, UniProt P04150); experiment: Transrepression assay using endogenous GR in the A549 lung epithelial cell line (TNF, NRE luciferase); assay type: cell-based; conditions: compound G at 1, 10, 100 and 500 nM
T1 construct: This cell line contains functional endogenous GR; endogenous in cells; host or cells: A549
T1 sequence (P04150 1-777): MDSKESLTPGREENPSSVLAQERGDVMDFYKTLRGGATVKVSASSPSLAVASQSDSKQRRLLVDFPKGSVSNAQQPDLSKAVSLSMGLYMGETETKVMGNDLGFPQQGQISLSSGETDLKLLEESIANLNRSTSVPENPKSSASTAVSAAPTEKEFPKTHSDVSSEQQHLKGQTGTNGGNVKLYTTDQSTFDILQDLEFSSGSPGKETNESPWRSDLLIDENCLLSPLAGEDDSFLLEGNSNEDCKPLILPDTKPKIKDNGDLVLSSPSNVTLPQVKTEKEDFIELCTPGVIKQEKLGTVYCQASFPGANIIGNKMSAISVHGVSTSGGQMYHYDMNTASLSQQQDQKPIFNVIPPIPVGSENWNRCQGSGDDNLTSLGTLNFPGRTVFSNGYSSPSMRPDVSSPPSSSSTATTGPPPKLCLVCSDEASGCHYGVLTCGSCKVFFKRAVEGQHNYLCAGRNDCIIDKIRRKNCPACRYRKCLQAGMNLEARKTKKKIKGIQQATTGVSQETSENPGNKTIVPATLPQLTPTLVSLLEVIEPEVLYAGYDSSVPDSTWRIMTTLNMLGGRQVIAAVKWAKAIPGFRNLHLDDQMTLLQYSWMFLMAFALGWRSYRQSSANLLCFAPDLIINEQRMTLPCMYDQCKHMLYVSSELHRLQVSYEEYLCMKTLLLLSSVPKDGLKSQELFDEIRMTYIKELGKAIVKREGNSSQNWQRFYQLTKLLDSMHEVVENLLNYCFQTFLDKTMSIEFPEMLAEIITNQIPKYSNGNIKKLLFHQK
Text: (§1) The A549 cell line (ECACC:86012804) is derived from the human lung epithelial cells from a carcinoma. This cell line contains functional endogenous GR and is stimulated by Tumour Necrosis Factor (TNF) to produce IL-8.
In this assay TNF was used to stimulate NFkB activity in a cell line that expressed endogenous GR. The ability of NFkB to activate an NRE “driving” a luciferase reporter gene could then be repressed by GR in a ligand dependent manner and, therefore, used to measure transrepression.
COS7 cells were transfected with 3 μg NRE-Luc per 10 cm tissue culture dish. The cells were plated out in to 24 well plates after transfection and left for 18 hours to recover before the steroids of FIGS. 1 and 2 were added. Next TNF was added to the samples after 3 hours incubation with the steroids and after another 15 hours the cells were lysed and a luciferase assay was performed.

GFP tagged GR = molecular target: T2, GFP tagged GR (Homo sapiens, UniProt P04150); experiment: Nuclear translocation using GFP tagged GR and fluorescent microscopy; assay type: cell-based; conditions: COS 7 cells, 100 nM, 3 hours
T2 construct: expressed in transfected cells; host or cells: COS 7
T2 sequence (P04150 1-777): T1 sequence (P04150 1-777)
Text: The un-liganded GR is present in the cytoplasm of cells in association with heat shock proteins (HSPs). The binding of an agonist ligand to the GR causes dissociation from the HSPs and translocation to the nucleus. A type I antagonist ligand can bind to the GR but cannot translocate to the nucleus. A type II antagonist ligand can bind to the GR, translocate to the nucleus and bind to DNA but cannot activate gene transcription. Therefore, the ability of a putative ligand to translocate the GR helps to determine its status as an agonist or antagonist. COS 7 cells were transfected with 5 μg of a green fluorescent protein (GFP) tagged GR expression vector. After transfection, these cells were split into 6 well plates with sterile microscope cover slips placed at the bottom of each well. The cells were allowed to recover for 18 hours and then the medium was removed, the cells were washed three times with sterile phosphate buffered saline (PBS) and new medium was added containing charcoal stripped FCS in place of normal FCS. The cells were incubated for 18 hours and then the steroids of FIGS. 1 and 2A were added to make a final concentration of 100 nM. The cells were incubated for a further 3 hours and then the medium was aspirated and the cells were fixed to the glass coverslips by adding ice cold methanol and incubating at −20° C. for 30 mins. The coverslips with the transfected cells fixed to them were mounted on slides and the cellular localisation of the GFP tagged GR was analysed by fluorescent microscopy using an Axioplan 2 microscope (Zeiss, Oberkochen, Germany) and KS300 v3.0 analysis software (Zeiss).

IL-8 = experiment: Repression of endogenous IL-8 in A549s; assay type: cell-based, human; conditions: A549 cells; compound G at 100 nM, p=0.0076
Text: as §1
In this assay TNF was used to stimulate NFkB activity in a cell line that expressed endogenous GR. The ability of NFkB to induce IL-8 gene transcription could then be repressed by GR in a ligand dependent manner and, therefore, used to measure transrepression.
COS7 cells were transfected with 3 μg NRE-Luc per 10 cm tissue culture dish. The cells were plated out in to 24 well plates after transfection and left for 18 hours to recover before the steroids of FIGS. 1 and 2A were added. After incubation for 3 hours with the steroids, TNF was added to the samples and after another 15 hours an IL-8 assay (R&D systems) was performed on the cell supernatants according to the manufacturers instructions. Briefly, triplicates of 100 μl of a 1:2 dilution of cell supernatant and 100 μl of a known dilution series of IL-8 were added to the wells of a microtitre plate coated with a monoclonal IL-8 antibody, the samples were incubated with a polyclonal biotinylated IL-8 antibody for 1 hour at room temperature and washed. Streptavidin horse radish peroxidase solution was then added to all wells and incubated for 30 mins before being washed. Tetramethyl benzidine (TMB; a chromagen) was added to all the wells and incubated in the dark for 10 mins, the reaction was stopped by the addition of H2SO4 and the absorbance of each well was read on a spectrophotometer using 450 nm as the primary wavelength. Regression analysis was performed on the standard data and the unknowns were expressed as pg/ml of IL-8 in comparison to the standards.

glucocorticoid receptor = molecular target: T3, glucocorticoid receptor (Homo sapiens, UniProt P04150); experiment: Transrepression assay using artificially expressed glucocorticoid receptor and P65 in the COS 7 cell line (NRE luciferase); assay type: cell-based; set-up: expressed in transfected cells; host or cells: COS 7 (African green monkey kidney, deficient in endogenous GR); conditions: 1, 10 and 100 nM
T3 sequence (P04150 1-777): T1 sequence (P04150 1-777)
Description: All transfections were performed using lipofectamine plus (Gibco BRL), according to the manufacturers' instructions, as previously described^1. Briefly, all cells were seeded at 5×10^5 per 10 cm tissue culture plate 18 hours before transfection, the next day the relevant plasmids were mixed with serum free medium and “Plus” reagent (Gibco BRL) and incubated for 15 mins, lipofectamine reagent was added and the mix was incubated for a further 15 mins, this mix was added to the cells on serum free medium in the 10 cm tissue culture plates and left for 3 hours, the cells were then trypsinised and divided into 24 well plates, the cells were left to recover overnight and were treated with steroid for 16 hours before harvest. All experiments were performed from one transfection in triplicate and on separate occasions with similar results.
The firefly luciferase gene catalyses the production of light from the substrate luciferin. When plasmid constructs containing this gene are transfected into cell lines the activity of the gene can be assessed by the intensity of the luminesence. The luciferase assay yields luminescence through an ATP-dependent oxidation of luciferin the amount of light produced can be measured by a luminometer and is a measure of gene activity (Davis, 1996). Light intensity was measured in a Luminometer (LB 9501, Berthold). The light intensity should be proportional to luciferase concentration in the range of 10^−16M (10 μg/L) to 10^−8M (1 mg/L). To measure the luminescence of the treated cells 150 μl of 1× reporter lysis buffer (RLB: 25 mM Tris phosphate pH7.8, 10 mM MgCl2, 15% Glycerol, 1% Triton, 1 mM EDTA) was added to the 24 well plates to lyse the cells and incubated at room temperature for 30 mins whilst being shaken. Then 100 μl of the room temperature cell extract were mixed with 100 μl of room temperature Luciferase Assay Reagent (LAR: 1 mM ATP, 0.3 mM D-Luciferin, 66% RLB). This reaction was mixed in a luminometer (LB 9501, Berthold) and the light produced was measured for a period of 5 seconds.
To perform this assay the GR and p65 were artificially expressed in a cell line lacking GR and deficient in endogenous P65. The ability of P65 to activate an NFkB response element (NRE) “driving” a luciferase reporter gene could then be repressed by GR in a ligand dependent manner and, therefore, used to measure transrepression.
COS7 cells were transfected with 1 μg pcDNA3-GR and 3 μg NRE-Luc and 200 ng p65 per 10 cm tissue culture dish. The cells were plated out in to 24 well plates after transfection and left for 18 hours to recover before the steroids of FIGS. 1 and 2A were added. After another 18 hour incubation the cells were lysed and a luciferase assay was performed.

[1] = system: tyrosine amino transferase (TAT); experiment: Quantitation of tyrosine amino transferase (TAT) in the livers of air pouch mice; assay type: in vivo; conditions: 3 μg i.p., FIG. 22
Description: (§2) At time 0, mice received either 0.5 ml of zymosan (1 mg) (group A, B, C) injected locally into the air-pouch. Group D and E were left untreated at this time-point. At 4 h post-zymosan the animals were placed in CO2. Air-pouches were then washed with 2 ml of PBS containing 3 mM EDTA, and livers were recovered and snap frozen for later analysis.
Quantitation of Tyrosine Amino Transferase (TAT) Protein in the Livers: In this method a colourimetric approach is used to quantitate TAT activity. The TAT enzyme catalyses the following reaction: L-tyrosine+2-oxoglutarate⇄4-hydroxyphenylpyruvate (pHPP)+L-glutamate
This reaction also requires pyridoxal phosphate (PLP) as a co-factor. Strong alkali conditions can then be used to convert pHPP to p-hydroxybenzaldehyde (pHBA) and oxalate. The amount of pHBA can then be assessed by measuring its absorbance at 331 nm (extinction coefficient 19,900 M^−1cm^−1) this figure is then assumed to be directly proportional to TAT activity. Livers were homogenized and the cells were stored on ice. […]
For each reaction a control reaction was set up without the ketoglutarate. […] The samples were incubated at room temperature for a further 30 mins and then the absorbance of each sample was assessed at 331 nm on a spectrophotometer (Ultrospec III, Pharmacia).

[2] = system: zymosan induced neutrophil migration; experiment: Air pouch model of inflammation, zymosan induced neutrophil migration; assay type: in vivo, mice
Description: Male outbred Swiss albino mice (18-20 g body weight) were purchased from Bantin and Kingman (T.O. strain; Hull, Humberside) and maintained on a standard chow pellet diet with tap water ad libitum and a 12:00 h light/dark cycle. All animals were housed for 3 days prior to experimentation to allow body weight to reach 20-22 g. On the day of experiment mice ranged from 24-26 g.
Air-pouches were formed on the back of mice by air injection (2.5 ml s.c.) on day 0 and day 3 (Perretti and Flower, 1993).
Zymosan A was allowed to defrost at room temperature for 30 min prior to being added to sterile PBS at a concentration of 2 mg/ml forming a homogenous suspension.
as §2
The number of migrated leukocytes (≧90% polymorphonuclear leukocytes, PMN) was determined in the lavage fluid from each air-pouch, by taking an aliquot (100 μl) of the lavage fluid and diluting 1:10 in Turk's solution (0.01% crystal violet in 3% acetic acid). The samples were then vortexed and 10 μl of the stained cell solution were placed in a Neubauer haematocymometer and neutrophils numbers counted using a light microscope (Olympus B061).
Neutrophil numbers were compared between groups using ANOVA plus the Bonferroni test. TAT levels were compared using a t-test.

Row | repression of TNF activation of A549 cells (NRE reporter gene) (endogenous GR) | nuclear translocation of the GFP tagged glucocorticoid receptor (GFP tagged GR) | liver TAT level compared with vehicle control groups [1] | Compound | repression of IL-8 production after TNF activation (IL-8) | repression of P65 stimulation of an NFkB response element compared with dexamethasone (glucocorticoid receptor) | Neutrophils (10^6 per mouse) ([2]; 3 μg i.p. at -1 h, Zymosan 1 mg into air-pouch, 4 h time-point, mean ± S.E. of 8 mice) | reduction of neutrophil accumulation ([2]; 3 μg i.p., zymosan air pouch, 4 h) [%]
1 | exhibited transrepression | caused nuclear localisation | – | CCCNC(=O)OCC(=O)C1(O)C(C)CC2C3CCC4=CC(=O)C=CC4(C)C3(F)C(O)CC21C (stereo not shown) [Compound H] | exhibited transrepression | less potent than dexamethasone but produced the same maximal response at 100 nM | – | –
2 | – | – | further elevation of TAT | C[C@@H]1C[C@H]2[C@@H]3CCC4=CC(=O)C=C[C@]4(C)[C@@]3(F)[C@@H](O)C[C@]2(C)[C@@]1(O)C(=O)CO [Dexamethasone, reference compound] | – | – | 6.23 ± 0.44 * 10^6 per mouse | ~30
